From patent US20140088144A1, “INHIBITING MICROBIAL INFECTIONS” (THE UNIVERSITY OF KANSAS, priority 2012, published 2014)

Assays:
[1] = system: E. coli strains used for in vivo assays; assay: E. coli growth curves; format: cell-based; details: for impact on growth of the cells: minimal medium
Experimental: Strains SME3634 and SME3359 were grown overnight (˜16 hr) at 37° C. in MOPS-buffered minimal medium. Overnight grown cultures were diluted into the same medium plus rhamnose to an O.D600 of 0.1, and IPTG was added. 1 mL aliquots of the cultures were added to wells of a 24-well plate, with the addition of either 44 μM Compound 1 (dissolved in 100% DMSO) or an equal volume of 100% DMSO. Growth was monitored at 20 min intervals for approximately 8 hr. at 37° C. with continuous shaking in a PowerWave XS plate reader (BioTek Instruments, Inc., Winooski, Vt.). Error bars represent the standard error of the mean.
To test the impact of SE-1 on growth of the bacterial strains used for in vivo dose-response assays (SME4382 and SME3359), we compared growth rates in the presence and absence of SE-1, without addition of rhamnose. Briefly, the cells were grown at 37° C. with shaking in MOPS-buffered minimal medium with glycerol and plus 6.5 mM IPTG, in 24-well plates, with or without: SE-1 (44 uM SE-1, 0.3% DMSO), or DMSO (0.3%) in a PowerWave XS plate reader equipped with KC^4 data analysis software (BioTek Instruments).

MBP-VirF = molecular target: T1, MBP-VirF (Shigella flexneri, UniProt P0A2T1); assay: Fluorescence-based thermal shift assay (Sypro Orange), VirF; format: binding
T1 construct: made in house; host or cells: E. coli KS 1000, plasmid pMALvirF
Experimental: Binding of SE-1 to purified VirF was tested by comparing the VirF melting temperature (Tm) in the absence and presence of SE-1 using a thermal shift assay with the fluorescent dye Sypro Orange (Molecular Probes). This method is also known as differential scanning fluorimetry or DSF. As a control, we tested binding of SE-1 to the purified, unrelated, MBP-NS1-NTD protein (greater than 95% pure). […] The reactions were carried out in 0.1 ml PCR low profile 8-tube strips with optically clear flat caps (USA Scientific) in a StepOnePlus™ Real-Time PCR System (Applied Biosystems), heating from 25 to 99° C. in increments of 0.8° C. The data was analyzed using the Boltzmann sigmoidal model in the software Prism (GraphPad). Data points before and after the fluorescence intensity minimum and maximum, respectively, were excluded from fitting. The ΔTm values are the average of three independent experiments with two replicates in each experiment. A single, representative, experiment is shown.

gapA = assay: Shigella gene expression qRT-PCR, internal control gapA; format: cell-based, S. flexneri; details: for Average ΔΔCt / Ct / RQ (2^−ΔΔCt) / ΔΔCt^2 (normalized to rrsA): gapA, example data
Experimental: Real-time quantitative reverse transcription PCR (qRT-PCR) was performed to test the effects of SE-1 on the expression of the VirF regulated genes virB, icsA, icsB and ipaB. The gapA and rrsA transcripts were used as internal controls. These are constitutively expressed Shigella genes commonly used to normalize mRNA levels. S. flexneri strain SME4331, which carries a null mutation in ipgD (ipgD), was grown at 30° C. overnight in TSB with ampicillin, diluted into the same medium to an OD600 of ˜0.1, and 1 ml aliquots further grown at 30° C. (DMSO only) or at 37° C. (SE-1 at 20 or 40 μM, or DMSO only, all 0.3% DMSO). Cells were grown to an OD600 of 1.0 (˜2.5 h) and RNA was isolated using an RNeasy MiniElute Cleanup Kit (Qiagen, Germantown, Md.), with DNA contamination eliminated using a Turbo DNase Kit (Ambion, Austin, Tex.). Complementary DNA (cDNA) was synthesized by random priming using a cDNA Reverse Transcription Kit (Applied Biosystems, Foster City, Calif.). Primers were tested for PCR specificity using genomic DNA template to ensure a single amplicon of the expected size for each primer pair, and validated using 5-fold dilutions of cDNA (2000 to 0.0256 ng) to ensure a linear plot of cycle threshold (Ct) versus cDNA concentration. Validated primer sets were used to test mRNA profiles in reactions that contained 10 ng of cDNA, 10 μl of SYBR green master mix (Applied Biosystems), specific primers (0.5 μM each) and water to a final volume of 20 μl, using a Step One Plus Real-Time PCR System (Applied Biosystems). The data was analyzed using the 2^−ΔΔCt method, and also by Applied Biosystems real-time analysis software. […] In brief, ΔΔCt values [ΔΔCt=(Ct,Target−Ct,Internal Control)SE-1−(Ct,Target−Ct,Internal Control)no SE-1] were separately obtained for each sample relative to two internal controls, gapA and rrsA. The ΔΔCt values relative to the two internal controls for each sample were averaged and then used to calculate the relative expression levels (2^−ΔΔCt). As a control, we also normalized each internal control to the other internal control. Control reactions used templates generated without reverse transcriptase to ensure low genomic DNA contamination. To ensure that products were not likely to be due to primer dimer artifacts, additional control samples were performed in which reaction mixtures contained primers alone (no template).

[2] = system: Shigella invasion of HeLa cells; assay: Shigella invasion of HeLa cells; format: cell-based, Shigella flexneri strain M90T; details: bacteria grown with compound before addition to cells
Experimental: We assayed the effect of Compound 1 on the interaction of Shigella with cultured human epithelial cells. Shigella flexneri strain M90T was grown to maximize type III secretion system [Shigella] expression. Shigella was assayed for invasion of HeLa cells. The bacterial cells were grown in the presence of Compound 1 prior to addition to tissue culture wells. Invasion assays involved, briefly, incubation of Shigella cells in tissue culture wells, washing to remove non-adherent bacteria, addition of gentamycin to kill bacterial cells that had not invaded the epithelial cells, trypsin treatment to dislodge epithelial cells, serial dilutions and plating on LB to enumerate bacterial colonies

T1 sequence (P0A2T1 whole entry): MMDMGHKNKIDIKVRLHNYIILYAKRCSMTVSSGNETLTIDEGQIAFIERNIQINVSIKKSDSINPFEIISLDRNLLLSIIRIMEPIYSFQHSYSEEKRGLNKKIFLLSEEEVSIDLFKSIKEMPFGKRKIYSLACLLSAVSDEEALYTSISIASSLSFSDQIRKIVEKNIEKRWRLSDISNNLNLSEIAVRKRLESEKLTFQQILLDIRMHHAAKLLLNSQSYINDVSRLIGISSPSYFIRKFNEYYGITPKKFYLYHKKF

In the case of `CCCCN1C=C(c2ccc3ccccc3n2)C(C[N+](=O)[O-])c2ccccc21` (stereo not drawn) [Compound 1, 1-butyl-4-(nitromethyl)-3-quinolin-2-yl-4H-quinoline], the “effect on growth of either strain” value ([1]; 44 uM, SME4382 and SME3359, 8 h at 37° C.) is reported as “no detectable effect”, the “impact on growth of the cells” value ([1]; 44 μM, strains with RhaS-activated and LacI-repressed fusions (SME3634, SME3359)) is reported as “no impact” and the “impact on growth of the cells” value ([1]; strains with VirF/Rns-activated and LacI-repressed reporter fusions) is reported as “no impact”. The “ΔTm for VirF” value (MBP-VirF; 40 μM SE-1) was 0.15 °C, the “increase of Tm of VirF (ΔTm)” value (MBP-VirF; 80 μM SE-1, 1 μM VirF) was 0.61 °C and the “expression of control gene gapA” value (gapA; 40 μM SE-1, normalized to rrsA) was “no decrease”. For the same compound, the “Average ΔΔCt” value (gapA; SE-1 20 μM) was 1, the Ct (gapA; SE-1 20 μM) was 27.33 and the “RQ (2^−ΔΔCt)” value (gapA; SE-1 20 μM) was 0.5. The “ΔΔCt^2 (normalized to rrsA)” value (gapA; SE-1 20 μM) was 1, the “Average ΔΔCt” value (gapA; SE-1 40 μM) was −0.69 and the Ct (gapA; SE-1 40 μM) was 26.76. For the same compound, the “RQ (2^−ΔΔCt)” value (gapA; SE-1 40 μM) was 0.62, the “ΔΔCt^2 (normalized to rrsA)” value (gapA; SE-1 40 μM) was −0.69 and the “ability of Shigella to invade human epithelial cells” value [2] was “reduced”.
